# Target: CB1 receptor (Mus musculus (Mouse), UniProt P47746)
# Experiment: [35S]GTPγS binding assay for CB1 receptor, mouse brain membranes
# Format: biochemical
# Conditions: nature of binding: agonist/antagonist/inverse agonist
# Description: For CB1 receptor-mouse brains were dissected and P2 membranes prepared and resuspended at ˜2 μg protein/μL in 1 ml assay buffer (50 mM Tris HCl, 9 mM MgCl2, 0.2 mM EDTA, 150 mM NaCl; pH 7.4). Ligand-stimulated [^35S]GTPγS binding was assayed as described previously (Tam et al., JCI 2010). Briefly, membranes (10 μg protein) were incubated in assay buffer containing 100 μM GDP, 0.05 nM [^35S]GTPγS, test compounds at various concentrations (CP55940/Rimonabant as controls and test compounds for BB8 conjugates), and 1.4 mg/mL fatty acid-free BSA in siliconized glass tubes. Membranes with bound ligand ([^35S]GTPγS) were separated from free ligand by vacuum filtration and were analyzed using β counter as described above. Non-specific binding was determined using 10 μM GTPS (cold GTP). Basal binding was assayed in the absence of the tested compound and in the presence of GDP.
# Sequence of CB1 receptor (P47746 whole entry): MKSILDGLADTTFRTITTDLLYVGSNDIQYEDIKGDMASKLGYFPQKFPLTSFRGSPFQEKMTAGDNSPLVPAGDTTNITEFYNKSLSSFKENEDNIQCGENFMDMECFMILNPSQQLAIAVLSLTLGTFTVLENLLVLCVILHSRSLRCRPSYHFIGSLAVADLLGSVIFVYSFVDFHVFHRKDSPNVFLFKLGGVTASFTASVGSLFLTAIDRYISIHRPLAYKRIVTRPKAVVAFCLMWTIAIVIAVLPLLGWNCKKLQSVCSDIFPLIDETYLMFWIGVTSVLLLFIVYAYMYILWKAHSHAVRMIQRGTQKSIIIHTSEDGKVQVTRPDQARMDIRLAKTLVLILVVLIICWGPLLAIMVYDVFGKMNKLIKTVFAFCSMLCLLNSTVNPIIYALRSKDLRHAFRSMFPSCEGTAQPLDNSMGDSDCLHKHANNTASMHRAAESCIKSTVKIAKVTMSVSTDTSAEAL
smiles,measurement,value
"Cc1ccc(C)c(OCCCC(C)(C)C(=O)NC2CCCOc3c2nn(-c2ccccc2Cl)c3-c2ccc(Cl)cc2)c1 (stereo not shown) [BNS822, N-[2-(2-chlorophenyl)-3-(4-chlorophenyl)-5,6,7,8-tetrahydrooxepino[3,2-c]pyrazol-8-yl]-5-(2,5-dimethylphenoxy)-2,2-dimethyl-pentanamide]",mCB1R GTPγ[^35S] (activity),Antagonist

# Source: patent publication US20240189287A1, “PERIPHERALLY RESTRICTED CB1 RECEPTOR BLOCKERS AND USES THEREOF” (BIONANOSIM (BNS) LTD, priority 2021, published 2024)
